The source of these data is publication PMC7269032, “Chiral 4-O-acylterpineol as transdermal permeation enhancers: insights of the enhancement mechanisms of a transdermal enantioselective delivery system for flurbiprofen” (Drug Delivery, 2020).

The structures appear in SMILES notation. ≈ marks a conversion by molar mass, not a printed value. Where two headings read alike, the source gives them in different places.

Usually logP stands for the decadic logarithm of the partition coefficient of the neutral form, usually between octanol and water. The solubility is the dissolved amount per volume that the medium holds. Low readings indicate a poorly soluble substance, high ones a readily soluble substance. Usually MRT stands for the average time that molecules of a dose stay in the body.

Data set [1] is described as follows: In vivo pharmacokinetic study, transdermal patch administration. Set-up: species or system rabbit. The note with it: rabbits; for chiral inversion to the other enantiomer in vivo: patch loaded with individual enantiomer, plasma (Figure 2(F)). How it is done: Thirty-six male rabbits weighing 2.5 kg were divided into six groups, and the back skin was intact without erythema. For patch administration studies, patches without or with enhancers (120 mg/kg) were stuck to the shaved area of the rabbits. They were administered as follows: (1) control group: only the SR-FP; (2) enhancer group A: prepared SR-FP patch with 5% d-4-TER; (3) enhancer group B: prepared SR-FP patch with 5% d-4-T-dC18; (4) enhancer group C: prepared SR-FP patch with 5% l-4-T-dC18; (5) enhancer group D: prepared S-FP patch with 5% d-4-T-dC18; (6) enhancer group E: prepared R-FP patch with 5% d-4-T-dC18. In order to prevent the patches fallen off, gauze and medical tape were used to fix the patches. The blood from ear vein of rabbit was collected 0.5 mL at 0.5, 1, 2, 4, 6, 8, 12, 16, 20, 24, 26, 28, 30, 32, 36 and 48 h, and the patch was removed after 24 h, then the residual drug was wiped with physiological saline. The sample was processed by the same method as IV. All animal studies were carried out in accordance with the NIH Guidelines for the Care and Use of Laboratory Animals and were also approved by the Life Science Research Center of North China University of Science and Technology.
(§1) After being thawed and equilibrated to room temperature, an aliquot (100 μL) of plasma sample was spiked with […] (10 μL) of 40.0 μg/mL and 400 μL methanol. The samples were vortexed for 5 min and followed by centrifugation at 16,000 rpm for 10 min at 25 °C. After centrifugation, the supernatant was transferred to a clean tube and evaporated to dryness at 40 °C under a gentle stream of nitrogen. The dried samples were reconstituted with 100 μL mobile phase, vortexed and centrifuged before analysis.
(§2) Pharmacokinetic parameters were calculated using WinNonlin® software (Pharsight Corporation, San Diego, CA, USA) based on noncompartmental model, including the maximal plasma drug concentration (Cmax), the time to reach Cmax (Tmax) which were obtained from the observed data, the area under the time–concentration curve from time 0 to time t (AUC0–t) of distribution which was calculated using the linear trapezoidal rule, the mean residence time (MRT), the plasma clearance (Cl) and the apparent volume(V). Enhancement factor (Ef) was calculated from the following equation: Ef=AUC0−t(with enhancer)/AUC0−t(without enhancer)
(§3) The concentrations of drugs in the receptor medium or rabbit plasma were determined using a validated HPLC method. The HPLC system was equipped with a Shimadzu HPLC apparatus, including an LC-20AT pump, a SIL20A syringe, an SPD-20A detector, and a CTO-20A column oven. The propylparaben was used as an internal standard, and the flow rate of chromatographic analysis was set 1.0 mL/min. For in vitro analysis of SR-FP, thermo (USA) C18 column (150 mm × 4.6 mm, 5 μm particle) maintained at 40 °C was used to elute SR-FP, the mobile phase was used methanol and 1% aqueous glacial acetic acid (60:40, v/v) and the wavelength was set at 247 nm. The HPLC conditions of S-FP and R-FP were as follows: The column was CHIRALPAK®IA (4.6 mm × 250 mml, 5 μm particle diameter) of DAOCEL (Shanghai, China). The mobile phase consisted of acetonitrile and trifluoroacetic acid (0.05%, 50:50, v/v), the wavelength was set at 254 nm. For in vivo analysis of S-FP and R-FP, the mobile phase consisted of acetonitrile and trifluoroacetic acid (0.05%, 35:65, v/v), and other conditions were the same to in vitro analysis.
Absolute bioavailability (F) was calculated by the following equation: F=AUCpatch·Dosei.v./AUCi.v.·Dosepatch

Data set [2] can be described thus: Determination of drug oil-water partition coefficient (log P). The data set is classed as physicochemical. Particulars: n-octanol/water, 25 °C. The method, then:
The same volume of water and n-octanol were mixed and shaken for 24 h at 25 °C, then the equal of water saturated n-octanol solution and n-octanol saturated aqueous solution through liquid-separation were obtained. The SR-FP or its single enantiomer (0.001 g) were added in the saturated solution, which were mixed to the ratio of 1:4, then shook for 24–48 h followed by stand for 24 h. (The shakings were in constant temperature air bath oscillator at 25 °C). Afterwards, the HPLC method was utilized to detect the concentration of the substance in the oil phase and the water phase.

Data set [3] is described as follows: In vitro permeation experiment of FP drug-in-adhesive patches in two-chamber diffusion cells. In kind it is in vitro ADME, rabbit. The note with it: for Tlag of R-FP / Js of R-FP / Tlag of S-FP / Js of S-FP / Tlag of SR-FP / Js of SR-FP: enhancer equimolar to 5% 4-TER (control: no enhancer); for Js of R-FP / Js of S-FP / Js of SR-FP: mean ± SD, n = 4. The source says:
Male, Japanese big-eared rabbits weighting 2.5–3.0 kg were purchased from the animal experimental center of North China University of Science and Technology. The experimental process was in accordance with the ‘Ethical Guide for Laboratory Animal Investigation’ and was approved by the Animal Experimental Center Committee of North China University of Science and Technology. All efforts were made to minimize animal suffering and to limit the number of animals used.
The hair of back skin was removed by clipper and electrical shaver carefully when the rabbits were anesthetized with ether. Full thickness of back skin was excised after the rabbit was sacrificed by injecting air into the ear veins, and the subcutaneous fat tissue was carefully removed using the surgical scissor and scalpel. The integrity of the skin was confirmed by microscopic observation method. The treated rabbit skin was cut into a size of 1.5 cm × 1.5 cm and stored at –80 °C until use. Before use, it needed to be immersed in physiological saline for 20 min to thaw.
Drug-in-adhesive patch (drug loading of 5% by adhesive) was prepared by using solvent evaporation method. An appropriate amount of FP was dissolved in a suitable amount of ethyl acetate, which was later added to the adhesive and mixed thoroughly with a mechanical stirrer. The resulting solution was coated onto release liner (Scotch Pak® 9744, 3M, USA) by using lab coating unit (6025, BLD Instruments Co. Ltd., Guangdong, China). The coated laminate was dried at 50 °C for 15 min. After the solvent had been removed, it was covered with backing laminate (Scotch Pak® 9732, 3M).
Modified two-chamber diffusion cells with an effective diffusion area of 0.95 cm^2 were employed in the in vitro permeation experiment. The cells were kept at 32 °C by the circulated water bath and stirred with magnetic bars at 400 rpm. The dermis side of the skin was attached to one-half of the side-by-side diffusion cells, the FP patch was pressed on the skin with the adhesive side facing the SC, and pH 7.4 PBS was used as the receptor medium. At predetermined time points (2, 4, 6, 8, 10, 12 and 24 h), the receptor solution of 2.0 mL was withdrawn and equal volume PBS was added to maintain a constant volume of receptor solution.
The cumulative amount of each drug permeating per unit area (Q) versus time was plotted. Q24h=(3.5Ci+2.0∑i=1n−1Ci−1)/A
Q was the cumulative skin permeation amount. Ci was the concentration in the receiver compartment at time i, A was the effective diffusion area of diffusion.
The steady-state flux (Js, µg/cm^2/h) was calculated from the slope of linear region of the plot. The lag-time was determined by extrapolating the linear portion of the curve to the abscissa. Js=dQr/Adt
Enhancement ratio (ER) was used to evaluate the activity of the enhancers, which is the ratio of Q24h with enhancer to Q24h without enhancer. ER=Q24h(with enhancer)/Q24h(without enhancer)

Data set [4] can be described thus: Determination of drug solubility. The note with it: pure water, 25 °C; for solubility: 48 h. The data set is classed as physicochemical. The method, then: The excess SR-FP or its single enantiomer (0.01 g) were sealed to 10 mL of pure water at 25 °C in glass vials and waved for 48 h in constant temperature air bath oscillator […]. Finally, the contents were passed through the 0.45 μm microporous membrane and centrifuged at 10,000 rpm for 5 min, then aliquots for the supernatant saturated solution were diluted and analyzed by HPLC. The experiments were performed in triplicate.

Data set [5] is described as follows: In vivo pharmacokinetic study, intravenous administration. Set-up: species or system rabbit. Particulars: rabbits, IV of 4.8 mg/kg SR-FP, enantiomer measured in plasma. The method, then: A certain amount of FP was dissolved in a mixed solution of sterile water and Tween-80 at 2.0 mg/mL. The fresh intravenous solution was prepared just before intravenous administration.
Six male rabbits weighing 2.5 kg were selected for IV. A capacity of 4.8 mg/kg FP (0.2 g FP was dissolved in a mixed solution of pure water and Tween80) was administered to the one ear vein of rabbit, the other ear vein of rabbit was phlebotomized about 0.5 mL at 5, 10, 15, 30 min and 1, 2, 3, 4, 6, 8, 10, 12 h. The blood samples were centrifuged at 4000 rpm for 10 min and kept at –80 °C.
as §1, §2
as §3, with “For in vivo analysis of S-FP and R-FP, the mobile phase consisted of acetonitrile and trifluoroacetic acid (0.05%, 35:65, v/v), and other conditions were the same to in vitro analysis.” left out

Setting [6] is: permeant R-FP, patch 5% drug (w/w).
The mark [7] stands for this setting: permeant S-FP, patch 5% drug (w/w).
[8] abbreviates: permeant SR-FP, patch 5% drug (w/w).

Take `C[C@@H](C(=O)O)c1ccc(-c2ccccc2)c(F)c1` [R-FP]: the “chiral inversion to the other enantiomer in vivo” value in data set [1] was “S-FP could be detected”. Moreover, the logP in data set [2] is 1.83 ± 0.09. In data set [3] (setting [6]), the “Tlag of R-FP” value was 2.43 h and the “Js of R-FP” value is 2.43 ± 0.18 μg/cm^2/h. This compound also yielded a solubility in data set [4] of 0.04982 ± 0.00131 mg/mL (≈ 204 µM). Further, in data set [5], the Cl amounted to 0.52 ± 0.03 L/h and the MRT is on record as 1.84 ± 0.15 h.

In the case of `C[C@H](C(=O)O)c1ccc(-c2ccccc2)c(F)c1` [S-FP], in data set [1], the “chiral inversion to the other enantiomer in vivo” value was “had not been observed”. In addition, the logP in data set [2] is 1.86 ± 0.05. Moreover, in data set [3] (setting [7]), the “Tlag of S-FP” value is listed as 3.82 h and the “Js of S-FP” value came to 2.65 ± 0.29 μg/cm^2/h. The compound further registered a solubility in data set [4] of 0.04639 ± 0.0043 mg/mL (≈ 190 µM). For the same compound, in data set [5], the Cl was 0.30 ± 0.02 L/h and the mean residence time (MRT) was 2.04 ± 0.23 h.

For the compound `CC(C(=O)O)c1ccc(-c2ccccc2)c(F)c1` (stereo not shown) [SR-FP, Flurbiprofen], the logP in data set [2] (read-out: logP) is 2.28 ± 0.04. Besides, the “cumulative transport of SR-FP at 24 h” value in data set [3] (0% enhancer level (w/w)) is listed as 122.93 ± 8.02 μg/cm^2. For the same compound, in data set [3] (setting [8]), the “Tlag of SR-FP” value came to 3.31 h and the “Js of SR-FP” value came out at 5.54 ± 0.37 μg/cm^2/h. The solubility at 48 h in data set [4] was determined as 0.0891 ± 0.00548 mg/mL (≈ 365 µM).

In the case of `CCCCCCCCC=CCCCCCCCC(=O)OC1(C(C)C)CC=C(C)CC1` (stereo not drawn) [l-4-T-dC18, l-4-methyl-1-(1-methylethyl)-3-cyclohexen-1-yl octadec-9-enoate], the “V of R-FP” value in data set [1] (SR-FP patch with 5% enhancer or without (control), analyte R-) stood at 65.31 ± 28.90 L. Also, the “V of S-FP” value in data set [1] (SR-FP patch with 5% enhancer or without (control), analyte S-) stood at 68.51 ± 17.97 L. Besides, the “Q24h of SR-FP” value in data set [3] (enhancer at same molar concentration as 5% 4-TER) is listed as 547.20 ± 35.94 μg/cm^2. In addition, the “ER (Q24h with enhancer/Q24h without enhancer) for R-FP” value in data set [3] (permeant R-FP, patch 5% drug (w/w), enhancer equimolar to 5% 4-TER) was determined as 4.6. Moreover, in data set [3] (setting [6]), the “Tlag of R-FP” value turned out to be 3.68 h and the “Js of R-FP” value is given as 12.04 ± 2.51 μg/cm^2/h. In addition, in data set [3] (permeant S-FP, patch 5% drug (w/w), enhancer equimolar to 5% 4-TER), the “ER (Q24h with enhancer/Q24h without enhancer) for S-FP” value is recorded as 4.98. Also, in data set [3] (setting [7]), the “Tlag of S-FP” value came to 3.89 h and the “Js of S-FP” value is reported as 12.98 ± 3.51 μg/cm^2/h. The “ER (Q24h with enhancer/Q24h without enhancer) for SR-FP” value in data set [3] (permeant SR-FP, patch 5% drug (w/w), enhancer equimolar to 5% 4-TER) came out at 4.45. Further, in data set [3] (setting [8]), the “Tlag of SR-FP” value is given as 3.61 h and the “Js of SR-FP” value amounted to 20.53 ± 3.11 μg/cm^2/h.
